Source: patent publication US20160090351A1, “INHIBITORS OF DEUBIQUITINATING PROTEASES” (BRANDEIS UNIVERSITY, priority 2013, published 2016)
“Also recorded” adds a separate entry of the source. Like-named read-outs stand apart in the source and are kept apart here.

What was measured:
MCF7 cells [1] = test: viability and cell cycle of MCF7 cells (Alamar Blue, FACS); settings: Alamar Blue
Method: (§3) MCF7 cells were dosed every 2 hours with the indicated concentration of C15. After 6 hours, cells were lysed by freeze thaw and then sonicated in 0.5% SDS. […] MCF7 cells were treated under the stated conditions then analyzed for cell cycle. […] G. Cells treated with C17 (25 μM), dosed every 24 hours. H. Cells treated with C17 (50 μM), dosed every 24 hours. […] These cells were left for 72 h (single dose) after which time the total number of viable cells was analyzed using Alamar Blue®. All data are n≧4 showing mean+/−s.e.m. K. MCF7 cells were plated with C17 for 24 hours after which time the total number of viable cells was measured by Alamar Blue®.
(§4) All cells were grown at 37° C. in a 5% CO2 humidified atmosphere in DMEM supplemented with 10% heat inactivated FBS, 1× glutamax, and 1× penicillin/streptomycin. […] Proliferation assays were conducted by plating cells at 5% confluence in 96 well plates together with compound or 0.1% DMSO. Cells were allowed to grow for 72 hours (a 24 h dosing regimen was used for carbonate compounds) and then Alamar Blue® was added and number of cells was measured by fluorescence on a microplate reader.

B16/F10 cells = test: proliferation and cell cycle of B16/F10 cells; assay type: cell-based, mouse; settings: 72 h, flow cytometry
Method: A. MCF7 cells were treated with C17 for 4 h and Mdm2 levels were measured. B. As in A, P53 measured. C. As in A, P21 measured. D. MCF7 and B16/F10 cells were treated with C17 every 24 hours. After 72 hours, the number of viable cells was measured by Alamar Blue®.
MCF7 cells were dosed every 2 hours with the indicated concentration of C15. After 6 hours, cells were lysed by freeze thaw and then sonicated in 0.5% SDS. A. Total lysates were blotted for K48-linked ubiquitin and actin. B. Normalized K48-linked ubiquitin signal was plotted as a function of concentration of C15 (N=2). C. […] Doxorubicin (Dox) is a DNA damaging agent that serves as a positive control for the induction of P53. D. Quantitation of P53 levels in C relative to actin (N=2). […] MCF7 cells were treated under the stated conditions then analyzed for cell cycle. F. DMSO treated cells. G. Cells treated with C17 (25 μM), dosed every 24 hours. H. Cells treated with C17 (50 μM), dosed every 24 hours. […] These cells were left for 72 h (single dose) after which time the total number of viable cells was analyzed using Alamar Blue®. All data are n≧4 showing mean+/−s.e.m. K. MCF7 cells were plated with C17 for 24 hours after which time the total number of viable cells was measured by Alamar Blue®. L. B16/F10 cells were treated with DMSO, C17 or P005091 for 72 h. […] After this time, cells were analyzed by flow cytometry.
All cells were grown at 37° C. in a 5% CO2 humidified atmosphere in DMEM supplemented with 10% heat inactivated FBS, 1× glutamax, and 1× penicillin/streptomycin. […] Typically clarified lysate was analyzed. […] Lysates were centrifuged (20 000 rpm, microcentrifuge, Eppendorf 5417 C) concentration was measured, then 0.1% SDS was added and lysates were sonicated for a total of 30 s (in 10 s bursts). Protein concentration was determined using Bradford assay with IgG as standard and analyzed by western blot as delineated below {[9 μg total protein for K48-linked ubiquitin (1:9000 antibody dilution), SMAD4 (1:500) or PARP (1:1000)]; [30-40 μg was loaded for K63-linked ubiquitin (1:1500), Mdm2 (1:1000) or Abl (1:1500). […]

USP9x = biological target: T1, USP9x (Homo sapiens, UniProt Q93008); test: HA-Ub-VS labeling in K562 cell lysates; assay type: biochemical; settings: compound 40 minutes, then HA-Ub-VS (1.5 μM) 20 minutes
T1 construct: endogenous in cells; host or cells: K562 cell lysate
Method: HA-Ub-VS is commonly used to label DUBs in cell lysates. […] A. and B. K562 cell lysates were treated with compound for 40 minutes prior to activity labeling with HA-Ub-VS (1.5 μM) for 20 minutes. Samples were analyzed by SDS-PAGE and immunoblotting with anti-HA antibody. C. […] Values were derived by fitting to the in Prism.

20S proteasome = 20S proteasome (Homo sapiens, UniProt P28074); test: proteasome activity (purified 20S proteasome; GFP-Ub (G76V) in Cos-1 cells); assay type: biochemical; settings: 20S proteasome 30 minutes, Suc-Leu-Tyr-AMC 100 μM; Cos-1 GFP-Ub (G76V) 8 hours
Method: A. Purified 20S proteasome was treated with compound for 30 minutes prior to addition of substrate (Suc-Leu-Tyr-AMC, 100 μM). B. Cos-1 cells expressing with GFP-Ub (G76V) were treated with compound for 8 hours, then the level of GFP was measured by flow cytometry.

K562 cells = test: apoptosis, cell cycle and viability of K562 cells by flow cytometry; assay type: cell-based, human; settings: annexin V-FITC / propidium iodide, 24 hours (TU50 also 8 hours)
Method: (§1) K562 cells are from a myelogenous leukemia line that expresses Bcr-Abl kinase. A. K562 cells were treated with TU50 for 24 hours after which time the cells were treated with annexin V-FITC and propidium iodide. Cells were then analyzed by flow cytometry. Cells showing only annexin V-FITC were considered apoptotic whereas cells showing both annexin V-FITC and propidium iodide were considered necrotic. N=2. All points show a significant difference to the vehicle (DMSO) with p<0.05. […] All points show a significant difference to vehicle (DMSO) with p<0.02. C. Same as A, but the incubation period was 8 hours. N>2. All points show a significant difference to DMSO with p<0.02. D, K562 cells were treated with TU50 for 4 hours. Samples were analyzed by SDS-PAGE and immunoblotting with anti-Bcr-Abl antibody. E. Quantitation of blot in D. The signal for tubulin was used to normalize the Bcr-Abl signal. N=3.
(§2) FIG. 40 depicts data showing that diphenyl carbonates induce the degradation of Bcr-Abl kinase. A. K562 cells were treated with C17 for 24 h (1 dose) then analyzed for Bcr-Abl expression by western blot with anti-Abl antibody. B. Quantitation of blots in A normalized to actin. C. K562 cells were treated with C17 for 24 h then the amount of cells in G1 and apoptosis were recorded (N=3). D. K562 were treated with C15 for 4 h then analyzed for Bcr-Abl expression using western blot. E. Quantitation of Bcr-Abl from D normalized to tubulin (N=4). F. Same K562 lysates were separately analyzed for K63-linked ubiquitin. G. Quantitation of blots in F (N=4). Differences between all bars is significant p<0.01). H. K562 cells were treated with C15 for 24 h after which time cells were fixed in ethanol, treated with propodium iodide/RNAse then analyzed by FACS. Viability was calculated using forward and side scatter. I. Same experiment as H but red fluorescence was measured to determine DNA content

Bcr-Abl kinase = test: Bcr-Abl levels in K562 cells by immunoblotting; assay type: cell-based, human; settings: TU50 4 hours
Method: as §1
FIG. 34 depicts data showing that diphenylcarbonates cause the accumulation of HMW-Ub and reduce the levels of Bcr-Abl in K562 cells. A. K562 cells were treated with diphenyl carbonates (50 μM) for 2 h and then assayed for the accumulation of K48-linked Ub. B. As in A, but Bcr-Abl was measured by immunoblotting with anti-Abl antibodies. C. K562 cells were treated with C17 (50 μM) in the presence and absence of bortezomib (6 μM) for 4 hours and Bcr-Abl was measured by immunblotting with anti-Abl antibodies. D. Quantitation of blot in C. Significance: DMSO relative to C17 and bortezomib p=0.002; DMSO relative to C17, p=0.03. E. K562 cells were treated with C15 for 4 hours then analyzed for SMAD4 monoubiquitination by western blot. F. Quantitation of blots in A. (N=3). See also FIG. 40.
as §2
Transfected cells were harvested 1.5 days post transfection. […] Typically clarified lysate was analyzed.

MCF7 cells [2] = tested on: MCF7 cells
Method: as §3, §4

[3] = tested on: ubiquitin-proteasome system; test: GFP-G76V-Ub assay in HEK 293T cells; assay type: cell-based, human; settings: diphenyl carbonates 100 μM, bortezomib 20 μM, G5 2 μM
Method: FIG. 32 depicts data showing that diphenyl carbonates inhibit DUBs in HEK 293T cells. A. Viability of HEK 293T cells assessed by the propidium iodide exclusion method: diphenyl carbonate (100 μM), bortezomib (V, 20 μM) and G5 (2 μM). N≧3, mean+/−s.d. B. HEK 293T cells were treated with the stated compounds (50 μM) for 2 h and then assayed for the accumulation of K48-linked Ub species. C. As in A, but K63-linked Ub was assayed. D. HEK 293T cells were treated with C14, C15, C17, C18 (100 μM) or DMSO for 2 hours, then harvested, lysed and treated with HA-Ub-VS. After 30 min, lysates were analyzed by SDS-PAGE and probed for HA, tubulin and actin. An intervening lane was removed for clarity. E. HEK 293T cells expressing Ub-G76V-GFP were treated with diphenyl carbonates (100 μM), bortezomib (20 μM) and G5 (2 μM). […] N>3, Mean+/−s.d. See also FIG. 39.
FACS was carried out on a […] FACS-Calibur. For HEK 293T and K562, cells were resuspended by repeated pipetting/agitation of the incubation media, followed by dilution into PBS. For Cos-1, MCF-7, and CHO cells, media was removed and trypsin was added. Harvested cells were placed in FACS buffer (0.5% FBS in PBS with 3 μg/mL propidium iodide) 30 s prior to analysis. All data were analyzed using FlowJo V10, from TreeStar (Ashland, Oreg.). Approximately 2500 cells were sorted per replicate. Cells were sorted by propidium iodide dye exclusion to give a “viable population”. GFP positive cells within this group were identified relative to untransfected controls. Then the geometric mean of the whole GFP positive population within the viable population was calculated. Typical transfection efficiencies for G76V ubiquitin were 60-70% for both Cos-1 and HEK 293T and 25-40% for CHO cells, based on GFP positive cells.
The activity of the diphenylcarbonates in the GFP-G76V-Ub assay, which monitors flux through the ubiquitin-proteasome system, was also investigated. The G76V mutation creates an unstable Ub fusion protein that is degraded in a proteasome dependent process. GFP fluorescence increased when HEK 293T cells expressing GFP-G76V-Ub were treated with the proteasome inhibitor bortezomib and decreased upon treatment with G5 (FIG. 39). This decrease has been attributed to increased flux through the ubiquitin-proteasome system triggered by the accumulation of HMW-Ub. […] Perhaps the inability of the diphenylcarbonates to inhibit UCH-L1/3 accounts for the stability of GFP-G76V-Ub. This selectivity might also explain the low cytoxicity of these compounds relative to G5.

DUBs = test: decomposition of high molecular weight ubiquitinated proteins (HMW-Ub) in lysates of HEK 293T cells expressing HA-Ub; assay type: biochemical, human; settings: HEK 293T HA-Ub lysates, 37° C.
Method: FIG. 30 depicts data showing that diphenylcarbonates inhibit the decomposition of high molecular weight ubiquitinated proteins (HMW-Ub). Lysates were prepared from HEK 293T cells expressing HA-ubiquitin. Samples were incubated at 37° C. and reactions were quenched by the addition of reducing Laemmli buffer. HMW-Ub was assessed by SDS-PAGE and immunoblotting with anti-HA antibody. A. Representative immunoblots measuring the decomposition of HMW-Ub in lysates treated with either the DMSO vehicle, G5 (10 μM) or C4 (500 μM). B. Plot of the decomposition of HMW-Ub in lysates treated with DMSO and C4 (500 μM) (N=2; error bars denote range). C. Inhibition of HMW-Ub decomposition by diphenylcarbonates. Lysates were treated with diphenylcarbonates (50 μM). “-” denotes no treatment; D, 1% DMSO vehicle; IU1, an USP14-specific inhibitor; Bort, bortezomib, a proteasome inhibitor. D. Representative decomposition of HMW-Ub after 2 h incubation in the presence of varying concentrations of C4. See also FIG. 36. E. Quantitation of D. The values of EC50 reported in FIG. 29B are the average and S.E.M. of at least 3 independent experiments. See also FIG. 37 and FIG. 38.
Cells overexpressing HA-ubiquitin were prepared as above. Pellets were typically stored at −80° C. until required, at which time they were thawed on ice. Cell lysis was performed in lysis buffer using a Dounce homogenizer (10 strokes, with grinding, on ice: typical yield approx. 2-5 mg protein per transfected T75 flask for HEK 293T cells; 1-3 mg protein from a T75 flask for Cos-1). Crude lysate was centrifuged at 17000 g for 10 min at 4° C., after which time the concentration of the lysate was normalized to 1 mg/mL. The lysate was aliquoted into PCR strip tubes (typical volumes 75-50 μL) and compound in DMSO was added to this to give a final concentration of DMSO of 1%. Tubes were briefly centrifuged, overlaid with Chill-out wax (50 μL) and placed in a PCR machine at 37° C. with heated lid set to 37° C. Aliquots (9 μL) were removed at the stated times and immediately quenched in (2× final concentration) reducing (dithiothreitol) loading buffer and frozen (−19° C.) till required. Western blot analysis was carried out using standard methods. Samples were resolved by SDS-PAGE, transferred to PVDF [(0.45 μm) (Towbin buffer, tank apparatus, 90 V 1 hour, then overnight at 30 V, 4° C.)] then blocked in 15% milk in TBS-T HS (100 mM Tris HCl, pH 7.6, 500 mM NaCl, 0.5% […]) for at least 2 hours at RT. Afterward, membrane was washed in TBS-T HS then probed with anti HA-HRP (1:18000) for 1.33 hours at RT. Membrane was washed 3 times in TBS-T HS (15 mins) then once in TBS (15 mins) and exposed to ECL II and visualized using blue biofilm. […] When required, membranes were stripped in 100 mM glycine pH 4, 500 mM NaCl, 1% SDS, 5 mM BME, at 55° C. for 19 mins, then analyzed.
Lysates were prepared from HEK 293T cells expressing N-terminally HA-tagged ubiquitin (HA-Ub) to facilitate the observation of ubiquitinated proteins. In the absence of a DUB inhibitor, the HMW-Ub pool decomposed with a half-life of 34 min (FIG. 30A,B). […] Similar results were obtained in lysates prepared from Cos-1 cells expressing HA-Ub.

[4] = tested on: G76V ubiquitin-GFP fusion protein; test: G76V ubiquitin-GFP fusion protein fluorescence, Example 5; assay type: cell-based; settings: Example 5, FIG. 9 bottom panel
Method: Cells treated with 4 (100 μM; as defined in FIG. 3) show PARP cleavage that indicates caspases are active. The fluorescence of G76V ubiquitin-GFP fusion protein increases in the presence of inhibitor 4 (as defined in FIG. 3), as expected if degradation […] due to inhibition of DUBs. In contrast, GFP fluorescence […] when the proteasome is inhibited by bortezomib.

T1 sequence (Q93008 whole entry): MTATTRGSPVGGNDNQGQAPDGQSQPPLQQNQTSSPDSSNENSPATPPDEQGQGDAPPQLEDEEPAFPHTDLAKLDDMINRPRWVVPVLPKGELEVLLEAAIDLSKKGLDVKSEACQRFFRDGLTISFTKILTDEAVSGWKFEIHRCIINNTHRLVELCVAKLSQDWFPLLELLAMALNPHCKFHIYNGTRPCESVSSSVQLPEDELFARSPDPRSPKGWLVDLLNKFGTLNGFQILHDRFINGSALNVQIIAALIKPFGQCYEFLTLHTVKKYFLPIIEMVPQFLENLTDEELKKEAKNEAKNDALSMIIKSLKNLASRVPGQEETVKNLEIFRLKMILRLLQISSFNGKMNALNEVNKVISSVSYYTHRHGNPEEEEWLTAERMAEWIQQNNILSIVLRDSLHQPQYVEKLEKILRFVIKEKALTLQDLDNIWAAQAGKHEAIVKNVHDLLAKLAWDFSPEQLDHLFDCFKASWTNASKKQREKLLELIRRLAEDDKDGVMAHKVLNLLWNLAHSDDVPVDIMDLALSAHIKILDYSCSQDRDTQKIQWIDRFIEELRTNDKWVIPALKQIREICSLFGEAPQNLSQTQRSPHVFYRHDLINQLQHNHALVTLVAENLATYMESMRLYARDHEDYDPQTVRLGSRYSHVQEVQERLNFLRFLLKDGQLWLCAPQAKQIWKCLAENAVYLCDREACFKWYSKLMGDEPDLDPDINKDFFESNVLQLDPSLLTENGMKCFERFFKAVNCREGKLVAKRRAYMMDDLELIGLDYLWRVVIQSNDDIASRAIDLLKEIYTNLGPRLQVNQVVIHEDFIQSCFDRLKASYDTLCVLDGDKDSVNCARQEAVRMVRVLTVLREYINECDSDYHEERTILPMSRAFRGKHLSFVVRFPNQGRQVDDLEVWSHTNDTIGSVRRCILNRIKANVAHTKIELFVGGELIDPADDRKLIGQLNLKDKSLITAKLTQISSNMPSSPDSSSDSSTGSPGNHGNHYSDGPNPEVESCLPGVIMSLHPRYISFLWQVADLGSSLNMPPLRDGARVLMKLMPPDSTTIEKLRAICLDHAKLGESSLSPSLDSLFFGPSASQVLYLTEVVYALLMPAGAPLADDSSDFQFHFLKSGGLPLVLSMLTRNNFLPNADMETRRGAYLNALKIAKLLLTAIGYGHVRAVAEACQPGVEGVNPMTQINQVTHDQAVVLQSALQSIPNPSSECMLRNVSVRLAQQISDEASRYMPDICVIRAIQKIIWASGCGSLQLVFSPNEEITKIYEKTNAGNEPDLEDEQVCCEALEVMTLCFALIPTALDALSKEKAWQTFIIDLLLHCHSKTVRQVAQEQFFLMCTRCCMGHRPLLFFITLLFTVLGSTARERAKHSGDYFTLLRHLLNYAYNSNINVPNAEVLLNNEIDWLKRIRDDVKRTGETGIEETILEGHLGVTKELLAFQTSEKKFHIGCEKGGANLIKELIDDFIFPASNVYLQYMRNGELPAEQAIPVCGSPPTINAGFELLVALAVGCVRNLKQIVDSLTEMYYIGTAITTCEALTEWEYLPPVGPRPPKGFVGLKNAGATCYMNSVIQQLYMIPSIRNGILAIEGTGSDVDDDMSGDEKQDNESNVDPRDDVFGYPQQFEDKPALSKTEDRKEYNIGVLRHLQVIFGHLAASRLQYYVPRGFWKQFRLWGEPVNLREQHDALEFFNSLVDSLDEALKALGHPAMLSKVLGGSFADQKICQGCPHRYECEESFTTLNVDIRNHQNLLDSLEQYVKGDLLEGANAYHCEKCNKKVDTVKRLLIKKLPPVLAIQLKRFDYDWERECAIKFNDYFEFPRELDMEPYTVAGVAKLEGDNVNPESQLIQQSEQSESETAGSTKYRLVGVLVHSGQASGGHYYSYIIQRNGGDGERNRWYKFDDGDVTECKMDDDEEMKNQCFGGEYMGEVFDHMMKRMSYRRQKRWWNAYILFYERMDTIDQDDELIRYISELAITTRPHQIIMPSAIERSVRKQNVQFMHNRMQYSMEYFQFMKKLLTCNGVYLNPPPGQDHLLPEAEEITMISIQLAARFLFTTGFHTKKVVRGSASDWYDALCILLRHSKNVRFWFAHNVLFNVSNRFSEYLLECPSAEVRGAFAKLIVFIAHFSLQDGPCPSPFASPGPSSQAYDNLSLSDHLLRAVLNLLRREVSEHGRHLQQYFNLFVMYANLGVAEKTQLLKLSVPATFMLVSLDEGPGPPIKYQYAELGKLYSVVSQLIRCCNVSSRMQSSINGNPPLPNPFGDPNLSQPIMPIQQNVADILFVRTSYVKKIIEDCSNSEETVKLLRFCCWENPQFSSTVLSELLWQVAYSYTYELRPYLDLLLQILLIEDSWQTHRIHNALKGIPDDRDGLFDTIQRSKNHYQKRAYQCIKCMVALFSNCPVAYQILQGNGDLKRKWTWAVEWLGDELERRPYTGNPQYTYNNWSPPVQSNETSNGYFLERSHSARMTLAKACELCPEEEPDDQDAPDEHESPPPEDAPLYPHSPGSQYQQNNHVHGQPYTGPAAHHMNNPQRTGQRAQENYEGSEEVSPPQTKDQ

Structure (SMILES): Oc1ccc2ccccc2c1 [Compound 2-Naphthol, 2-Naphthol]
- cytotoxicity after single dose, 72 h (MCF7 cells [1]): not cytotoxic

Structure (SMILES): CC(=O)c1cc([N+](=O)[O-])c(Sc2cccc(Cl)c2Cl)s1 [Compound P005091, reference compound]
- cell cycle distribution (B16/F10 cells): decrease in cells in G1 phase and an increase in G2

Structure (SMILES): CC(C)(C)OC(=O)NCCc1ccc(N=C=S)cc1 [TU46]
- EC50 (USP9x): 11 ± 4 µM
- effect on proteasome activity (20S proteasome): no effect on proteasome activity

Structure (SMILES): O=C(NCc1ccc(N=C=S)cc1)OCc1ccccc1 [TU49]
- apoptosis of K562 cells (K562 cells): induce apoptosis of K562 cells
- Bcr-Abl kinase level (Bcr-Abl kinase): cause degradation of Bcr-Abl kinase
- effect on proteasome activity (20S proteasome): no effect on proteasome activity

Structure (SMILES): NCc1ccc(O)cc1 [aminomethylphenol, 4-(aminomethyl)phenol]
- cytotoxicity after single dose, 72 h (MCF7 cells [2]): not cytotoxic

Structure (SMILES): CC(C)C[C@H](NC(=O)[C@H](Cc1ccccc1)NC(=O)c1cnccn1)B(O)O [bortezomib, reference compound]
- GFP fluorescence [3]: Only bortezomib treatment caused an increase in GFP fluorescence; also recorded: increased
- stabilization of the HMW-Ub pool (DUBs): failed to stabilize the HMW-Ub pools
- GFP fluorescence of G76V ubiquitin-GFP [4]: decreases
